Reference: article PMC11505918, “The Epiphyte Bacillus sp. G2112 Produces a Large Diversity of Nobilamide Peptides That Promote Biofilm Formation in Pseudomonads and Mycobacterium aurum” (Biomolecules, 2024)
Where a SMILES comes first, the peptide text is derived from it. Bridges are numbered along the chain shown (N, C = ends). [ ]: non-standard residue; d: D form. The star is where a group is joined. d(aThr) = C[C@@H](O)[C@@H](N)C(=O)O; Isobutyryl = CC(C)C(=O)*; Dhb = C/C=C(\N)C(=O)O; Propionyl = CCC(=O)*

Assays:
[1] = test system: Lysinibacillus sphaericus DSM1867; settings: for inhibition zone against L. sphaericus: DSM1867, 0.1 mg/mL; for antibiotic activity against L. sphaericus (in words): agar diffusion, 5 µg/hole (Figure S97b)
[2] = test system: M. aurum; assay: Crystal violet biofilm formation assay, M. aurum; settings: crystal violet staining, 0.2 µg/µL, KB medium, 28 °C, 2 d
[3] = test system: Pseudomonas sp. G124; assay: Crystal violet biofilm formation assay, Pseudomonas sp. G124; settings: crystal violet staining, 0.2 µg/µL, KB medium, 28 °C, 2 d
[4] = test system: P. syringae pv. glycinea; assay: Crystal violet biofilm formation assay, P. syringae pv. glycinea; settings: crystal violet staining, 0.2 µg/µL, KB medium, 28 °C, 2 d
[5] = test system: lung, gastric, and colorectal cancers; settings: cited from earlier work
[6] = test system: matrix metalloproteinase-2 and -9; settings: lung, gastric, and colorectal cancers; cited from earlier work

Row | Compound | inhibition zone against L. sphaericus [1] [mm] | antibiotic activity against L. sphaericus (in words) [1] | effect on biofilm formation in M. aurum (in words) [2] | effect on biofilm formation in Pseudomonas sp. G124 (in words) [3] | effect on biofilm formation in P. syringae pv. glycinea (in words) [4] | cancer cell motility (in words) [5] | expression of the matrix metalloproteinase-2 and -9 (in words) [6]
1 | C/C=C1\NC(=O)[C@H](C)NC(=O)[C@H](C(C)C)NC(=O)[C@H](NC(=O)[C@H](Cc2ccccc2)NC(=O)[C@@H](CC(C)C)NC(=O)[C@@H](Cc2ccccc2)NC(=O)CC)[C@@H](C)OC1=O [A-3302-A (2), A-3302-A] (Propionyl-[dF][dL]F[d(aThr)]VA[Dhb]; ester 4-C) | 18.3 | powerful antibiotic activity |  |  |  |  | 
2 | C/C=C1\NC(=O)[C@H](C)NC(=O)[C@H](C(C)C)NC(=O)[C@H](NC(=O)[C@H](Cc2ccccc2)NC(=O)[C@@H](CC(C)C)NC(=O)[C@@H](Cc2ccccc2)NC(=O)C(C)C)[C@@H](C)OC1=O [nobilamide J (9), nobilamide J] (Isobutyryl-[dF][dL]F[d(aThr)]VA[Dhb]; ester 4-C) | 21.3 | powerful antibiotic activity |  |  |  |  | 
3 | nobilamide A [nobilamide A (4)] |  | did not exhibit antimicrobial activity | strongly induced | strongly induced | strongly induced |  | 
4 | nobilamide I [nobilamide I (8)] |  |  | less clear effect | less clear effect | worked best | suppressed | suppressed
5 | nobilamide S [nobilamide S (18)] |  |  |  | induced biofilm formation | did not promote biofilm formation |  | 
6 | nobilamide W [nobilamide W (22)] |  |  | strongly induced | strongly induced | strongly induced |  | 
